US11098061B2 (Celgene CAR LLC, priority 2013, dated 2021)

Legend:
[1] = molecular target: p38a activated, mitogen-activated protein kinase-activated protein kinase 2 (MAPKAP-K2 or MK-2) enzyme (Homo sapiens (Human), UniProt P49137); test: MK2 Omnia continuous-read kinase assay for compound potency; assay type: biochemical; details: [MK-2]=0.4 nM, [ATP]=1.0 mM, [ST3-Sox]=10 μM
Excerpt: The protocol below describes a continuous-read kinase assay optimized to measure potency of compounds against p38a activated, mitogen-activated protein kinase-activated protein kinase 2 (MAPKAP-K2 or MK-2) enzyme. The mechanics of the assay platform are best described by the vendor (Invitrogen, Carlsbad, Calif.) on their website at the following URL: invitrogen.com/search/global/searchAction. action?resultPage=1 &resultsPerPage=15 &query=om nia&personaFilterTerm=Support+%26+Troubleshoot
Kinase reactions were started with the addition of 40 μL of MK-2 enzyme and monitored every 71 seconds for 30-240 minutes at λex360/λem485 in a Synergy^2, Synergy^4 or Synergy H^4 plate reader from BioTek (Winooski, Vt.). […] Initial velocity (0 minutes to +30 minutes) from each reaction was estimated from the slope of a plot of relative fluorescence units vs time (minutes) and normalized to the no enzyme and no inhibitor control groups for % Inhibition. The resulting % Inhibition values were then plotted against inhibitor concentration to estimate IC50 from log[Inhibitor] vs Response, Variable Slope model in GraphPad Prism from GraphPad Software (San Diego, Calif.).
[MK-2]=0.4 nM, [ATP]=1.0 mM and [ST3-Sox]=10 μM (ATP ^appKM=8-10 μM)

[2] = molecular target: T1, MK2 (Homo sapiens (Human), UniProt P49137); test: MK2 modification assessment by whole protein mass spectrometry; assay type: binding; details: intact MK2, 60 min, 10-fold excess of compound to protein
Procedure: Modification of MK2 is measured by whole protein MS analysis. […] 5 μL aliquots of the samples were diluted with 15 μL of 0.2% TFA prior to micro C4 ZipTipping directly onto the MALDI target using sinapinic acid as the desorption matrix (10 mg/ml in 0.1% TFA:Acetonitrile 50:50). Analysis was performed on a AB Sciex 4800 MALDI TOF/TOF retro fitted with an HM2 detector (CovalX). Percent modification of target MK2 (i.e., the percent of total MK2 modified by the test compound) for each compound was calculated by subtracting the centroid mass of the compound treated MK2 from the centroid mass of the control MK2 and dividing that value with the mass of the compound.

[3] = molecular target: T1, MK2; test: MK2 cellular assay (Hsp27 phosphorylation in Thp-1 cells); assay type: cell-based; details: differentiated Thp-1 cells, compound 1 hour, 50 ng/ml LPS 15 minutes, phosphorylation of Hsp27; read-out: MK2EC50
Procedure: Compounds were assayed in Thp-1 human acute monocytic leukemia cells to measure inhibition of MK2 activity. Thp-1 were grown in suspension in T225 flasks. Two days prior to assay, Thp-1 cells were spun down, counted and plated at 1×10^6 cells per well of a 12 well plate in complete media containing 10 ng/ml PMA (phorbol myristate acetate) to differentiate the cells. On day of assay, cells were washed with complete media, and compound was added to differentiated Thp-1 cells for 1 hour. Cells were washed again, and complete media containing 50 ng/ml LPS (lipopolysaccharide) was added. After 15 minutes, cells were washed once with PBS and lysed on ice with BioRad Bioplex lysis buffer. 20 μg total protein from lysates were loaded on gel and blots were probed for phosphorylation of the MK2 substrate Hsp27. Dose response inhibition of MK2 signaling in differentiated Thp-1 cells was used to determine the EC50 for compounds reported in Table A in the column entitled “MK2 EC50.”

T1 sequence (P49137 whole entry): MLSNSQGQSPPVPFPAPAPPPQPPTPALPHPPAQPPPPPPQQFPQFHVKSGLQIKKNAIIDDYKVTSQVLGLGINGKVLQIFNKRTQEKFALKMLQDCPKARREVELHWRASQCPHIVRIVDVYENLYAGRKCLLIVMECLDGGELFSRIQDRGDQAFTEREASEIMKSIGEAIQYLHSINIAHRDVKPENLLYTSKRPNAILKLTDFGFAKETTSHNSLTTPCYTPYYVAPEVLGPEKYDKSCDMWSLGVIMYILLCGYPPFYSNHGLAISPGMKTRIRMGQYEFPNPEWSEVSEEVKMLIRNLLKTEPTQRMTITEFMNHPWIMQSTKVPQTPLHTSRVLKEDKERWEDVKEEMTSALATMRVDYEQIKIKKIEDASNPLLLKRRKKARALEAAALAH
p38a activated, mitogen-activated protein kinase-activated protein kinase 2 (MAPKAP-K2 or MK-2) enzyme, sequence (P49137 whole entry): as above

Compound	IC50 [1] [nM]	MK2 Mass Mod [2]	EC50 [3] [nM]
C=CC(=O)Nc1cc(-c2cc3c(cn2)CCc2c-3[nH]c3c2C(=O)NC2(CC2)C3)ccc1F [II-6, N-(2-fluoro-5-(7′-oxo-5′,6′,7′,8′,10′,11′-hexahydrospiro[cyclopropane-1,9′-pyrido[3′,4′:4,5]pyrrolo[2,3-f]isoquinolin]-2′-yl)phenyl)acrylamide]	< 100	E (mass modification of ≥70%)	< 100
C=CC(=O)NC1CCCC1NC(=O)c1ccc2cc3n(c2c1)C1(CCC1)CNC3=O (racemic) [Compound V-56, N-trans-(2-acrylamidocyclopentyl)-1′-oxo-2′,3′-dihydro-1′H-spiro[cyclobutane-1,4′-pyrazino[1,2-a]indole]-7′-carboxamide (racemic)]	> 1000	F (mass modification of 31-69%)	> 1000
C=CC(=O)Nc1cccc(NC(=O)c2ccc3sc4c(c3c2)NC[C@@H](C)NC4=O)c1 [III-12, (R)—N-(3-acrylamidophenyl)-3-methyl-5-oxo-2,3,4,5-tetrahydro-1H-benzo[4,5]thieno[3,2-e][1,4]diazepine-9-carboxamide]	< 100	F (mass modification of 31-69%)	501 to 999
C=CC(=O)Nc1cc(C(=O)Nc2cc(-c3cc4c([nH]3)C3(CCCNC3)CNC4=O)ccn2)ccc1OC(F)(F)F (racemic) [Compound I-23, 3-acrylamido-N-(4-(4′-oxo-1′,4′,5′,6′-tetrahydrospiro[piperidine-3,7′-pyrrolo[3,2-c]pyridin]-2′-yl)pyridin-2-yl)-4-(trifluoromethoxy)benzamide]	< 100	E (mass modification of ≥70%)	501 to 999
C=CC(=O)Nc1cc(-c2cc3c(ccc4c5c([nH]c43)CCC5=O)cn2)ccc1N1CCN(C(C)=O)CC1 [II-e-23, N-(2-(4-acetylpiperazin-1-yl)-5-(7-oxo-7,8,9,10-tetrahydrocyclopenta[4,5]pyrrolo[2,3-f]isoquinolin-2-yl)phenyl)acrylamide]	< 100	E (mass modification of ≥70%)	501 to 999
C=CC(=O)Nc1cc(-c2cc3c(ccc4c5c(n(C)c43)CCC5=O)cn2)ccc1N1CCN(C)CC1 [II-e-15, N-(5-(10-methyl-7-oxo-7,8,9,10-tetrahydrocyclopenta[4,5]pyrrolo[2,3-f]isoquinolin-2-yl)-2-(4-methylpiperazin-1-yl)phenyl)acrylamide]	< 100	E (mass modification of ≥70%)	101 to 500
C=CC(=O)N1CCC[C@H](NC(=O)c2ccc3sc4c(c3c2)NC[C@@H](C)NC4=O)C1 [III-41]	–	–	101 to 500
C=CC(=O)Nc1cc(-c2ccc3c(ccc4sc5c(c43)NC[C@@H](C)NC5=O)n2)ccc1OC(F)(F)F [III-45, (R)—N-(5-(10-methyl-8-oxo-9,10,11,12-tetrahydro-8H-[1,4]diazepino[5′,6′:4,5]thieno[3,2-f]quinolin-3-yl)-2-(trifluoromethoxy)phenyl)acrylamide]	< 100	–	< 100
C=CC(=O)NC1CCCC1NC(=O)c1ccc2cc3n(c2c1)C1(CCC1)CNC3=O (racemic) [Compound V-55, N-cis-(2-acrylamidocyclopentyl)-1′-oxo-2′,3′-dihydro-1′H-spiro[cyclobutane-1,4′-pyrazino[1,2-a]indole]-7′-carboxamide (racemic)]	> 1000	G (mass modification ≤30%)	–
C=CC(=O)N[C@H]1CN(C(=O)c2ccc3cc4n(c3c2)CCNC4=O)CC[C@H]1C [Compound V-2, N-((3R,4R)-4-methyl-1-(1-oxo-1,2,3,4-tetrahydropyrazino[1,2-a]indole-7-carbonyl)piperidin-3-yl)acrylamide]	> 1000	G (mass modification ≤30%)	–
C=CC(=O)N1CCc2ccc(NC(=O)c3ccc4cc5n(c4c3)CCNC5=O)cc21 [Compound V-9, N-(1-acryloylindolin-6-yl)-1-oxo-1,2,3,4-tetrahydropyrazino[1,2-a]indole-7-carboxamide]	101 to 500	E (mass modification of ≥70%)	–
C=CC(=O)N1CCC[C@@H](NC(=O)c2ccc3cc4n(c3c2)CCNC4=O)C1 [Compound V-3, (R)—N-(1-acryloylpiperidin-3-yl)-1-oxo-1,2,3,4-tetrahydropyrazino[1,2-a]indole-7-carboxamide]	> 1000	G (mass modification ≤30%)	–
C=CC(=O)NC1COCC1NC(=O)c1ccc2sc3c(c2c1)NC[C@@H](C)NC3=O (stereo partly drawn) [III-48]	< 100	G (mass modification ≤30%)	–
C=CC(=O)N1CCOc2ccc(-c3nccc(-c4cc5c([nH]4)CCNC5=O)n3)cc21 [II-25, 2-(2-(4-acryloyl-3,4-dihydro-2H-benzo[b][1,4]oxazin-6-yl)pyrimidin-4-yl)-6,7-dihydro-1H-pyrrolo[3,2-c]pyridin-4(5H)-one]	< 100	E (mass modification of ≥70%)	–
CN(C)C/C=C/C(=O)Nc1ccccc1NC(=O)c1ccc2cc3n(c2c1)CCNC3=O [Compound V-5, (E)-N-(2-(4-(dimethylamino)but-2-enamido)phenyl)-1-oxo-1,2,3,4-tetrahydropyrazino[1,2-a]indole-7-carboxamide]	> 1000	G (mass modification ≤30%)	–
C=CC(=O)Nc1cc(NC(=O)c2ccc3sc4c(c3c2)NC[C@@H](C)NC4=O)ccc1C(F)(F)F [III-57, (R)—N-(3-acrylamido-4-(trifluoromethyl)phenyl)-3-methyl-5-oxo-2,3,4,5-tetrahydro-1H-benzo[4,5]thieno[3,2-e][1,4]diazepine-9-carboxamide]	501 to 999	G (mass modification ≤30%)	–
C=CC(=O)Nc1cc(-c2cc(-c3cc4c([nH]3)C3(CCCNC3)CNC4=O)ccn2)ccc1N1CCN(C)CC1 (racemic) [Compound I-10, N-(2-(4-methylpiperazin-1-yl)-5-(4-(4′-oxo-1′,4′,5′,6′-tetrahydrospiro[piperidine-3,7′-pyrrolo[3,2-c]pyridin]-2′-yl)pyridin-2-yl)phenyl)acrylamide]	< 100	E (mass modification of ≥70%)	–
C=CC(=O)NC1CCCCC1NC(=O)c1ccc2cc3n(c2c1)CCNC3=O (racemic) [Compound V-10, Racemic N-((1S,2R)-2-acrylamidocyclohexyl)-1-oxo-1,2,3,4-tetrahydropyrazino[1,2-a]indole-7-carboxamide]	> 1000	G (mass modification ≤30%)	–
C=CC(=O)Nc1cc(C)cc(-c2cc3c(ccc4c5c([nH]c43)CCC5=O)cn2)c1 [II-e-22, N-(3-methyl-5-(7-oxo-7,8,9,1-tetrahydrocyclopenta[4,5]pyrrolo[2,3-f]isoquinolin-2-yl)phenyl)acrylamide]	101 to 500	–	101 to 500
C=CC(=O)Nc1cc(-c2cc(-c3cc4c(s3)C(=O)N[C@H](C)CN4)ccn2)ccc1OCCOC [III-d-1, (R)—N-(2-(2-methoxyethoxy)-5-(4-(3-methyl-5-oxo-2,3,4,5-tetrahydro-1H-thieno[3,2-e][1,4]diazepin-7-yl)pyridin-2-yl)phenyl)acrylamide]	> 1000	E (mass modification of ≥70%)	–
C=CC(=O)Nc1cc(NC(=O)c2ccc3cc4n(c3c2)CCNC4=O)ccc1N1CCN(CC)CC1 [Compound V-1, N-(3-acrylamido-4-(4-ethylpiperazin-1-yl)phenyl)-1-oxo-1,2,3,4-tetrahydropyrazino[1,2-a]indole-7-carboxamide]	501 to 999	E (mass modification of ≥70%)	–
C=CS(=O)(=O)N1CCC[C@H](NC(=O)c2ccc3sc4c(c3c2)NC[C@@H](C)NC4=O)C1 [III-43]	–	–	< 100
